In PubChem BioAssay (NCI):
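Exposure lasted 48 hours, with cells grown in 96-well plates and compounds tested at five concentrations. GI50 is the concentration that inhibits growth by half. The concentration for full growth arrest is given as TGI.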

Columns and labels:
Experiment in all cases: NCI anticancer screen, dose series, 48 h
786-0 renal = test system: 786-0 renal
A498 renal = test system: A498 renal
A549 NSCLC = test system: A549 NSCLC
ACHN renal = test system: ACHN renal
BT-549 breast = test system: BT-549 breast
CAKI-1 renal = test system: CAKI-1 renal
CCRF-CEM leukemia = test system: CCRF-CEM leukemia
COLO 205 colon = test system: COLO 205 colon
DU-145 prostate = test system: DU-145 prostate
EKVX NSCLC = test system: EKVX NSCLC
HCC-2998 colon = test system: HCC-2998 colon
HCT-116 colon = test system: HCT-116 colon
HCT-15 colon = test system: HCT-15 colon
HL-60(TB) leukemia = test system: HL-60(TB) leukemia
HOP-62 NSCLC = test system: HOP-62 NSCLC
HOP-92 NSCLC = test system: HOP-92 NSCLC
HS 578T breast = test system: HS 578T breast
HT29 colon = test system: HT29 colon
IGROV1 ovarian = test system: IGROV1 ovarian
K-562 leukemia = test system: K-562 leukemia
KM12 colon = test system: KM12 colon
LOX IMVI melanoma = test system: LOX IMVI melanoma
M14 melanoma = test system: M14 melanoma
MALME-3M melanoma = test system: MALME-3M melanoma
MCF7 breast = test system: MCF7 breast
MDA-MB-231 breast = test system: MDA-MB-231 breast
MDA-MB-435 = test system: MDA-MB-435
MOLT-4 leukemia = test system: MOLT-4 leukemia
NCI-H226 lung = test system: NCI-H226 lung
NCI-H23 lung = test system: NCI-H23 lung
NCI-H460 lung = test system: NCI-H460 lung
NCI-H522 lung = test system: NCI-H522 lung
NCI/ADR-RES ovarian = test system: NCI/ADR-RES ovarian
OVCAR-3 ovarian = test system: OVCAR-3 ovarian
OVCAR-4 ovarian = test system: OVCAR-4 ovarian
OVCAR-5 ovarian = test system: OVCAR-5 ovarian
OVCAR-8 ovarian = test system: OVCAR-8 ovarian
PC-3 prostate = test system: PC-3 prostate
RPMI-8226 leukemia = test system: RPMI-8226 leukemia
RXF 393 renal = test system: RXF 393 renal
SF-268 CNS = test system: SF-268 CNS
SF-295 CNS = test system: SF-295 CNS
SF-539 CNS = test system: SF-539 CNS
SK-MEL-2 melanoma = test system: SK-MEL-2 melanoma
SK-MEL-28 melanoma = test system: SK-MEL-28 melanoma
SK-MEL-5 melanoma = test system: SK-MEL-5 melanoma
SK-OV-3 ovarian = test system: SK-OV-3 ovarian
SN12C renal = test system: SN12C renal
SNB-19 CNS = test system: SNB-19 CNS
SNB-75 CNS = test system: SNB-75 CNS
SR leukemia = test system: SR leukemia
SW-620 colon = test system: SW-620 colon
T-47D breast = test system: T-47D breast
TK-10 renal = test system: TK-10 renal
U251 CNS = test system: U251 CNS
UACC-257 melanoma = test system: UACC-257 melanoma
UACC-62 melanoma = test system: UACC-62 melanoma
UO-31 renal = test system: UO-31 renal

Which results are given for `COc1ccc(-c2cn[nH]c2-c2cc(OC)c(OC)c(OC)c2)cc1OCc1ccccc1`?
GI50 (786-0 renal): 2.96 µM; TGI (786-0 renal): 16.2 µM; GI50 (A498 renal): 2.08 µM; TGI (A498 renal): 5.51 µM; GI50 (A549 NSCLC): 3.56 µM; TGI (A549 NSCLC): 51.6 µM; GI50 (ACHN renal): 3.53 µM; TGI (ACHN renal): 35.2 µM; GI50 (BT-549 breast): 5.33 µM; TGI (BT-549 breast): 25.8 µM; GI50 (CAKI-1 renal): 3.58 µM; TGI (CAKI-1 renal): 47.1 µM; GI50 (CCRF-CEM leukemia): 3.49 µM; TGI (CCRF-CEM leukemia): 26.5 µM; GI50 (COLO 205 colon): 4.58 µM; TGI (COLO 205 colon): 18.1 µM; GI50 (DU-145 prostate): 3.94 µM; TGI (DU-145 prostate): 21.6 µM; GI50 (EKVX NSCLC): 4.48 µM; TGI (EKVX NSCLC): 47.2 µM; GI50 (HCC-2998 colon): 3.45 µM; TGI (HCC-2998 colon): 12.1 µM; GI50 (HCT-116 colon): 3.13 µM; TGI (HCT-116 colon): 11.2 µM; GI50 (HCT-15 colon): 3.07 µM; TGI (HCT-15 colon): 13.2 µM; GI50 (HL-60(TB) leukemia): 2.36 µM; TGI (HL-60(TB) leukemia): 5.44 µM; GI50 (HOP-62 NSCLC): 3.13 µM; TGI (HOP-62 NSCLC): 14.1 µM; GI50 (HOP-92 NSCLC): 2.01 µM; TGI (HOP-92 NSCLC): 15.3 µM; GI50 (HS 578T breast): 2.23 µM; TGI (HS 578T breast): 8.86 µM; GI50 (HT29 colon): 3.61 µM; TGI (HT29 colon): 15.8 µM; GI50 (IGROV1 ovarian): 3.52 µM; TGI (IGROV1 ovarian): 18.7 µM; GI50 (K-562 leukemia): 3.18 µM; TGI (K-562 leukemia): > 100 µM; GI50 (KM12 colon): 3.3 µM; TGI (KM12 colon): 12 µM; GI50 (LOX IMVI melanoma): 3.44 µM; TGI (LOX IMVI melanoma): 13.6 µM; GI50 (M14 melanoma): 2.63 µM; TGI (M14 melanoma): 8.77 µM; GI50 (MALME-3M melanoma): 4.28 µM; TGI (MALME-3M melanoma): 26.2 µM; GI50 (MCF7 breast): 3.65 µM; TGI (MCF7 breast): 17.1 µM; GI50 (MDA-MB-231 breast): 3.25 µM; TGI (MDA-MB-231 breast): 16.5 µM; GI50 (MDA-MB-435): 1.95 µM; TGI (MDA-MB-435): 3.91 µM; GI50 (MOLT-4 leukemia): 3.1 µM; TGI (MOLT-4 leukemia): 11 µM; GI50 (NCI-H226 lung): 3.57 µM; TGI (NCI-H226 lung): 20.5 µM; GI50 (NCI-H23 lung): 4.21 µM; TGI (NCI-H23 lung): 31.7 µM; GI50 (NCI-H460 lung): 3.35 µM; TGI (NCI-H460 lung): 12.2 µM; GI50 (NCI-H522 lung): 2 µM; TGI (NCI-H522 lung): 9.31 µM; GI50 (NCI/ADR-RES ovarian): 2.52 µM; TGI (NCI/ADR-RES ovarian): 7.43 µM; GI50 (OVCAR-3 ovarian): 2.47 µM; TGI (OVCAR-3 ovarian): 5.44 µM; GI50 (OVCAR-4 ovarian): 4.97 µM; TGI (OVCAR-4 ovarian): 59.1 µM; GI50 (OVCAR-5 ovarian): 3.76 µM; TGI (OVCAR-5 ovarian): 28 µM; GI50 (OVCAR-8 ovarian): 3.72 µM; TGI (OVCAR-8 ovarian): 30.3 µM; GI50 (PC-3 prostate): 3.24 µM; TGI (PC-3 prostate): 19.1 µM; GI50 (RPMI-8226 leukemia): 2.22 µM; TGI (RPMI-8226 leukemia): 9.28 µM; GI50 (RXF 393 renal): 1.95 µM; TGI (RXF 393 renal): 4.85 µM; GI50 (SF-268 CNS): 4.6 µM; TGI (SF-268 CNS): 27 µM; GI50 (SF-295 CNS): 3.01 µM; TGI (SF-295 CNS): 9.02 µM; GI50 (SF-539 CNS): 2.19 µM; TGI (SF-539 CNS): 5.23 µM; GI50 (SK-MEL-2 melanoma): 4.27 µM; TGI (SK-MEL-2 melanoma): 16.7 µM; GI50 (SK-MEL-28 melanoma): 4.86 µM; TGI (SK-MEL-28 melanoma): 18.3 µM; GI50 (SK-MEL-5 melanoma): 2.29 µM; TGI (SK-MEL-5 melanoma): 5.89 µM; GI50 (SK-OV-3 ovarian): 3.74 µM; TGI (SK-OV-3 ovarian): 23.8 µM; GI50 (SN12C renal): 4.41 µM; TGI (SN12C renal): 19.4 µM; GI50 (SNB-19 CNS): 4.23 µM; TGI (SNB-19 CNS): 24.7 µM; GI50 (SNB-75 CNS): 2.91 µM; TGI (SNB-75 CNS): 9.23 µM; GI50 (SR leukemia): 2.85 µM; TGI (SR leukemia): 9.38 µM; GI50 (SW-620 colon): 4.37 µM; TGI (SW-620 colon): 30.2 µM; GI50 (T-47D breast): 2.83 µM; TGI (T-47D breast): 19.1 µM; GI50 (TK-10 renal): 4.53 µM; TGI (TK-10 renal): 49 µM; GI50 (U251 CNS): 3.24 µM; TGI (U251 CNS): 11.8 µM; GI50 (UACC-257 melanoma): 6.38 µM; TGI (UACC-257 melanoma): 24.3 µM; GI50 (UACC-62 melanoma): 3.02 µM; TGI (UACC-62 melanoma): 13.3 µM; GI50 (UO-31 renal): 3.21 µM; TGI (UO-31 renal): 15.2 µM
